Each structure is given as a SMILES string. “Also recorded” adds a separate entry of the source. Where two headings read alike, the source gives them in different places.

Results on two compounds are retold here after patent publication US12337037B2, “Taxol conjugate compounds, pharmaceutical compositions comprising the same, and methods for their use” (N1 Life, Inc, priority 2021, dated 2025).

Data set [1] concerns Human ovarian cancer (SKOV-3-GFP) cells. Put plainly: Efficacy in metastatic ovarian cancer model (peritoneal disseminated metastasis). It counts as in vivo, Female athymic nude mice. As to conditions: for mean tumor fluorescence area as % of the Vehicle (PBS) group / Mean tumor mass (g) (MEAN ± SD) / Average tumor inhibitory rate (%) (MEAN ± SD): Day 21; for mean tumor fluorescence area as % of the Vehicle (PBS) group / Average tumor area on day 0 (MEAN ± SD) / Average tumor area on day 21 (MEAN ± SD) / Mean tumor mass (g) (MEAN ± SD) / Average tumor inhibitory rate (%) (MEAN ± SD): Taxol 10 mg/kg; for mean tumor fluorescence area as % of the Vehicle (PBS) group: Compound 3 / Compound 5 9.6 mg/kg IP Q5D; for Average tumor area on day 0 (MEAN ± SD): baseline fluorescence area; for Average tumor area on day 21 (MEAN ± SD): fluorescence area; for Mean tumor mass (g) (MEAN ± SD): conjugate 9.6 mg/kg IP Q5D; for Average tumor inhibitory rate (%) (MEAN ± SD): from final tumor weights. On the procedure:
The tumor samples were then stored in formalin solution.
Method: The method was the same as described for Biological Example 4.
Endpoint tumor load of each group: At Day 21 after administration, the tumor load of each group was calculated by dissecting and weighing the tumor in the abdominal cavity. The vehicle was the control.
Tumor inhibitory rate (IR): Tumor IR was calculated based on the final average tumor weights according to the formula: IR (%)=(1-treatment(t)/control(c))×100

The test system of data set [2] is liver cancer Hep 3B cells. Kind of data set: CCK-8 cytotoxicity / anti-proliferation assay, Hep 3B. As to conditions: 4 μM. It counts as cell-based. On the procedure:
(§1) Cytotoxicity Assay—CCK8 Cancer Cells
The CCK-8 assay was applied to study the cytotoxicity of the peptide drug conjugates and their inhibition of proliferation of cancer cells. First, 2˜10×10^3 cells (depending on the rate of growth of different cell lines) with 100 μL, DMEM media were seeded in normal culture medium into each well of a 96-well plate. The cells were then cultured overnight at 37° C. with 4˜5% CO2. Different doses (4000, 2000, 1000, 500 nM for Hep3B, Hep G2 and MCF7/MBA-MD-231; 1000, 333.3, 100.0, 33.33, 3.333, 1.000, 0.333 nM for MCF7/ADR, 22Rv1, CNE1, HCT116, DLD-1) of Taxol and peptide drugs were added. After 48˜72 hour incubation, CCK-8 solution was added to each well. The cells were then incubated at 37° C. for 4 hours. The optical density was measured at 450/650 nm using a multiscan spectrometer (PerkinElmer's EnSpire Multilabel Plate Reader). The optical density is linearly proportional to the number of living cells in the sample: […]

The test system of data set [3] is DLD-1 colorectal adenocarcinoma cell line. Put plainly: cells. As for the experimental part: as §1
(§2) The CCK-8 assay was applied to study the cytotoxicity of the peptide drug conjugates and their inhibition of proliferation of cancer cells. First, 2˜10×10^3 cells (depending on the rate of growth of different cell lines) with 100 μL, DMEM media were seeded in normal culture medium into each well of a 96-well plate. The cells were then cultured overnight at 37° C. with 4˜5% CO2. Different doses (4000, 2000, 1000, 500 nM for Hep3B, Hep G2 and MCF7/MBA-MD-231; 1000, 333.3, 100.0, 33.33, 3.333, 1.000, 0.333 nM for MCF7/ADR, 22Rv1, CNE1, HCT116, DLD-1) of Taxol and peptide drugs were added. After 48˜72 hour incubation, CCK-8 solution was added to each well. The cells were then incubated at 37° C. for 4 hours. The optical density was measured at 450/650 nm using a multiscan spectrometer (PerkinElmer's EnSpire Multilabel Plate Reader). The optical density is linearly proportional to the number of living cells in the sample:
(§3) The plate layout for MCF7/ADR, 22Rv1, CNE1, HCT116, DLD-1 cell lines is shown below.

Data set [4] deals with CNE1 nasopharyngeal carcinoma cell line. Put plainly: cells. The following applies: read-out: IC50 nM. On the procedure:
as §1, §2, §3

In data set [5] the test system is 22Rv1 human prostate carcinoma epithelial cell line. Put plainly: cells. As for the experimental part:
as §1, §2, §3

Data set [6] concerns HCT116 human colorectal carcinoma cell. Put plainly: cells. On the procedure: as §1, §2, §3
The subject of data set [7] is MCF7/ADR multidrug-resistant breast cancer cell. Kind of data set: cells. As to conditions: read-out: IC50 nM. As for the experimental part: as §1, §2, §3
Data set [8] in a line: Safety: animal body weight change after dosing, tumor bearing mice. The following applies: for Weight gain (%): day 0 to day 21, IP Q5D. From the text:
Animals: Female athymic nude mice were used in this study. The experimental mice were purchased from Shibefu (Beijing) Biotechnology Co., Ltd. (QC number: SCXK Beijing 2019-0010) and maintained in a High Efficiency Particulate Air Filter (HEPA) filtered environment with cages, food and bedding sterilized by irradiation or autoclaving.
Establishment of peritoneal disseminated metastasis model of human ovarian cancer: Human ovarian cancer (SKOV-3-GFP) cells in logarithmic growth period were digested with 0.25% trypsin, rinsed with phosphate buffer (PBS) twice, centrifuged, and suspended with serum-free RPMI1640 medium. Cell suspension (6×10^6/120 μL/mouse) was injected into the peritoneal cavity of each experimental mouse for the establishment of peritoneal disseminated metastasis model of human ovarian cancer.
Groups, testing articles and treatment protocols: Day 4 after cell inoculation, all mice were subjected to systemic imaging using FluorVivo Model-100 (INDEC biosystems, CA, USA). Mice with a small deviation from average tumor load were enrolled in the study. All animals were randomly allocated to the different study groups, 6 mice in each group. Dosing schedule was Q5D (day 0, 5, 10), dosing volume was 10 μl/g, and administration route was intraperitoneal injection. Each dose of Compound 3 or Compound 5 was 9.6 mg/kg (equimolar to 2.5 mg/kg Taxol) and each dose of Taxol was 10 mg/kg. Taxol working solutions were prepared from 6 mg/mL stock solution, while Compounds were dissolved in PBS (pH 7.4) and filtered through 0.22 μm filter.
Monitoring of the experimental mice: During the period of the study, all experimental mice were checked daily for mortality or signs of morbidity. Images of tumor progression were acquired three times a week during the period of the study with the FluorVivo imaging system, Model 100/Mag (INDEC BioSystems, CA, USA). The body weights of the mice were measured three times a week during the period of the study.
Study endpoint: On Day 21 after administration, animals were euthanized by inhalation of excessive anesthetics. All tumors were exposed for imaging (under the same exposure conditions), after which the tumors were removed and weighed with an electronic balance (Sartorius BS 124 S, Germany). The tumor samples were then stored in formalin solution.
Statistical methods used in efficacy evaluation: Comparison of body weights and tumor burdens in different groups were analyzed using EXCEL t-test with an α=0.05 (two-sided).

Where [9] appears, read: Table 8A (Compound 3 set), Compd 3 9.6 mg/kg IP Q5D.
Setting [10] is: Table 8B (Compound 5 set), Compd 5 9.6 mg/kg IP Q5D.
Setting [11] is: Table 9A (titled Compound 3 set).
Setting [12] is: Table 10B (Compound 5 set), Compd 5 9.6 mg/kg IP Q5D.
Setting [13] is: separate experiment, 38.4 mg/kg, 3 Q5D doses, tumor bearing mice.

As a reminder, the IC50 is the point on the concentration scale where inhibition reaches its midpoint. For `CC(=O)O[C@H]1C(=O)[C@@]2(C)[C@H]([C@H](OC(=O)c3ccccc3)[C@]3(O)C[C@H](OC(=O)[C@H](O)[C@@H](NC(=O)c4ccccc4)c4ccccc4)C(C)=C1C3(C)C)[C@]1(OC(C)=O)CO[C@@H]1C[C@@H]2O` [Taxol, paclitaxel], the “mean tumor fluorescence area as % of the Vehicle (PBS) group” value in data set [1] was 8-16%. Further, the figures for the “Average tumor area on day 0 (MEAN ± SD)” value in data set [1] (setting [9]) and in data set [1] (setting [10]) were 18.4 ± 3.3 and 22.8 ± 4.1, respectively. The “Average tumor area on day 21 (MEAN ± SD)” value is given as 24.8 ± 27.1 in data set [1] (setting [9]) and 22.7 ± 15.5 in data set [1] (setting [10]). The “Mean tumor mass (g) (MEAN ± SD)” value in data set [1] (setting [11]) is on record as 0.174 ± 0.141 g; in data set [1] (Table 9B (titled Compound 5 set)), 0.1970 ± 0.1248 g. Besides, the “Average tumor inhibitory rate (%) (MEAN ± SD)” value was 90 ± 8% in data set [1] (Table 10A (Compound 3 set), Compd 3 9.6 mg/kg IP Q5D) and 84 ± 10% in data set [1] (setting [12]). Also, in data set [2], the Anti-proliferation % is reported as 11.5%. The IC50 was 9.98 nM in data set [3] (Homo sapiens, DLD-1, read-out: IC50 nM); 1.12 nM in data set [4]; 4.95 nM in data set [5] (Homo sapiens, 22Rv1, read-out: IC50 nM); 2.79 nM in data set [6] (Homo sapiens, HCT-116, read-out: IC50 nM); greater than 1000 nM in data set [7] (Homo sapiens, NCI/ADR-RES).
For the compound `CC(=O)N[C@H](CSSCCCC(=O)O[C@@H](C(=O)O[C@H]1C[C@@]2(O)[C@@H](OC(=O)c3ccccc3)[C@@H]3[C@]4(OC(C)=O)CO[C@@H]4C[C@H](O)[C@@]3(C)C(=O)[C@H](OC(C)=O)C(=C1C)C2(C)C)[C@@H](NC(=O)c1ccccc1)c1ccccc1)C(=O)N[C@H](CCCNC(=N)N)C(=O)N[C@H](CCCNC(=N)N)C(=O)N[C@H](CCCNC(=N)N)C(=O)N[C@H](CCCNC(=N)N)C(=O)N[C@H](CCCNC(=N)N)C(=O)N[C@H](CCCNC(=N)N)C(=O)N[C@H](CCCNC(=N)N)C(=O)N[C@H](CCCNC(=N)N)C(N)=O` [Compound 5, Ac-D-Cysteine (paclitaxel-4-mercaptobutanoate)-D-Arginine8-NH2], the “Weight on day 21 (MEAN ± SD)” value in data set [8] (Table 7B (Compound 5 set), IP Q5D (day 0, 5, 10), Taxol 10 mg/kg, Compd 5 9.6 mg/kg) worked out at 16.9 ± 1.1. For the same compound, the “Weight on day 0 (MEAN ± SD)” value in data set [8] (Table 7B (Compound 5 set), baseline, IP Q5D (day 0, 5, 10), Taxol 10 mg/kg, Compd 5 9.6 mg/kg) was found to be 16.9 ± 0.6. Further, the “Weight gain (%)” value is given as “no change in body weight” in data set [8] (Table 7B (Compound 5 set), Taxol 10 mg/kg, Compd 5 9.6 mg/kg) and 0% in data set [8] (Table 7B (Compound 5 set), Taxol 10 mg/kg, Compd 5 9.6 mg/kg, listed as Compd 5). For the same compound, the animal deaths result in data set [8] (setting [13]) is recorded as “One mouse in this group was found dead on Day 18”. In data set [8] (setting [13]), the “body weight change on Day 21” value is −2%. Further, the “clinical signs after administration” value in data set [8] (setting [13]) was “recumbent and their voluntary activities were reduced”. Besides, the “acute toxic effect / animal death” value in data set [1] (9.6 mg/kg IP Q5D, ovarian cancer model) was “caused animal death; also recorded: one animal died at Day 18”. In data set [1] (9.6 mg/kg vs Taxol 10 mg/kg), the “tumor inhibitory effect, less effective than Taxol” value is reported as “about 10%”. For the same compound, the “mean tumor fluorescence area as % of the Vehicle (PBS) group” value in data set [1] is reported as 10%. For the same compound, in data set [1] (setting [10]), the “Average tumor area on day 0 (MEAN ± SD)” value came to 24.9 ± 6.6. In data set [1] (setting [10]), the “Average tumor area on day 21 (MEAN ± SD)” value was 28.7 ± 19.8. In data set [1] (setting [11]), the “Mean tumor mass (g) (MEAN ± SD)” value came out at 0.178 ± 0.143 g. Moreover, the “Average tumor inhibitory rate (%) (MEAN ± SD)” value in data set [1] (setting [12]) stood at 79±11%; in data set [1] (Table 10B (Compound 5 set), Compd 5 9.6 mg/kg IP Q5D, listed as Compd 5), 79 ± 11%. Further, the Anti-proliferation % in data set [2] worked out at 23.2%. Further, the IC50 in data set [3] (read-out: IC50 nM, DLD-1 cells) is 110 nM; in data set [4] (CNE1 cells) it was 19.3 nM; in data set [5] (read-out: IC50 nM, 22Rv1 cells), 29.3 nM; in data set [6] (read-out: IC50 nM, HCT116 cells) it was 23.5 nM; in data set [7] (MCF7/ADR cells), greater than 1000 nM.
